Experimental data from patent publication US20200267989A1, “PARASITE TREATMENT COMPOUND” (University of Maine System Board of Trustees, priority 2017, published 2020).
Several values for one entry are separate records, joined by “and”; a condition that tells them apart may be missing. Equal values may be shown once.

Assays:
[1] = tested on: sea lice; assay: KCl bath treatment of sea-lice-infected Atlantic salmon: sea lice detachment; assay type: in vivo
Procedure: (§1) A 0.48% (4.8 g/L-4.8 ppt) pharmaceutical grade KCl compound was tested on 30 Atlantic salmon that were infected with sea lice. The fish and the compound were added to a tank filled with seawater. After 30 minutes 15 fish were removed and placed in a recovery bath of seawater, and at 60 minutes the remaining 15 fish were removed.
(§2) A 0.43% % (4.3 g/L-4.3 ppt) agricultural grade KCl compound was tested on Atlantic salmon that were infected with sea lice. After 10 minutes the fish began showing agitation that increased until the 30 minute mark. Fish began losing equilibrium and began to roll over and stop respiring by 20 minutes.
(§3) A water holding tank was filled with fresh well water at 10° C.+−2° C. A 0.5% % (5.0 g/L-5.0 ppt) agricultural grade KCl solution was added to the water. A number of farm-raised Atlantic salmon that were infected with sea lice were added to the tank.
(§4) A water holding tank was filled with fresh well water at 10° C.+−2° C. A 0.2% % (2.0 g/L-2.0 ppt) agricultural grade KCl solution was added to the water. A number of farm-raised Atlantic salmon that were infected with sea lice were added to the tank.

[2] = tested on: Atlantic salmon; assay: KCl bath treatment of Atlantic salmon: adverse effects on the fish; assay type: in vivo
Procedure: as §1, §2, §3, §4

[3] = tested on: sea lice; assay: Pilot laboratory trial: KCl pre-treatment plus mechanical devices for removal of sea lice from Atlantic salmon; assay type: in vivo
Procedure: A pilot laboratory trial was run using various forms of mechanical devices for removal of sea lice from Atlantic salmon (ATS). The effectiveness of the mechanical devices at removing/detaching lice was measured with and without KCl pretreatment, and the results compared.
The experiment consisted of testing 3 mechanical devices on lice infested Atlantic salmon (ATS) in seawater and then on lice infested Atlantic salmon that had been pre-treated in seawater with KCL at 4 part per thousand (PPT) or 2 PPT for 5 or 15 minutes. The mechanical treatment referred to as Treatment A in Table 1 was a water spray apparatus including multiple jets in a roughly circular arrangement, and treatments B and C in Table 1 were alternative mechanical treatments. Each treatment group was run separately with two fish were staggered by 15 minutes to facilitate counting lice, except for Treatment C as both fish were placed together. The treatment groups were as follows: • 1) Treatment A with seawater (2 fish) • 2) Treatment A with sea water plus KCL 4 PPT, 15 minutes (2 fish) • 3) Treatment B with seawater (2 fish) • 4) Treatment B with sea water plus KCL 4 PPT, 15 minutes (2 fish) • 5) Treatment A with seawater plus 2PPT, 15 minutes (1 fish) • 6) Treatment A with sea water plus KCL 4 PPT, 5 minutes (1 fish) • 7) Treatment C with seawater (2 fish) • 8) Treatment C sea water plus KCL 2 PPT (2 fish)
Each treatment group was performed essentially as follows:
Pre-Treatment before Treatment A, B, or C • 1) Take 1 fish and transfer it to Tank 1 (70 liter tank); • 2) Take 1 fish and transfer it to Tank 2, staggered (70 liter tank); • 3) Both tanks will be filled with seawater for Round 1 of a treatment group and seawater and KC1 4PPT X for Round 2 for a treatment; • 4) Fish swim around freely in treatment Tank 1 for 30 minutes; • 5) Fish swim around freely in treatment Tank 2 for 30 minutes;
Evaluation of Pretreatment: • 1) Remove Fish from Tank 1; • 2) Place 1 Fish in Sedation Tank; • 3) Count detached lice in Tank 1; • 4) Remove 1 Fish from Sedation Tank; • 5) Count numbers of Lice on each fish (making sure to differentiate between the two tanks); • 6) Repeat for staggered Tank 2.
Perform Mechanical Treatment: • 1) Pass fish through mechanical treatments (A, B or C) • 2) Count lice on fish

[4] = previously known pesticide treatment; cited from earlier work
[5] = Example 1: 0.48% (4.8 ppt) pharmaceutical grade KCl, seawater tank, 30 and 60 minutes
[6] = Example 3: 0.5% (5.0 ppt) agricultural grade KCl, fresh well water at 10° C.
[7] = Mechanical Treatment A, KCl 2 PPT in seawater, treatment time 15 min
[8] = Mechanical Treatment A, KCl 4 PPT in seawater, treatment time 5 min
[9] = Mechanical Treatment A, KCl 4 PPT in seawater, treatment time 15 min
[10] = Mechanical Treatment B, KCl 4 PPT in seawater, treatment time 15 min

[Cl-].[K+] [KCl, potassium chloride]
sea lice detachment [1, 5]: noticeable sea lice detachment | sea lice detachment ([1]; Example 2: 0.43% (4.3 ppt) agricultural grade KCl, by agitation and thrashing of the dying fish): detached more lice | sea lice removal [1, 6]: marked sea lice removal | sea lice detachment ([1]; Example 4: 0.2% (2.0 ppt) agricultural grade KCl, fresh well water at 10° C., after 30 minutes): marked sea lice detachment | effectiveness on sea lice in freshwater compared with seawater ([1]; freshwater vs seawater): more effective | adverse effects on the salmon [2, 5]: no noticeable adverse effects | time by which fish began losing equilibrium, rolled over and stopped respiring ([2]; Example 2: 0.43% (4.3 ppt) agricultural grade KCl): ≤ 20 min | time after which fish began showing agitation ([2]; Example 2: 0.43% (4.3 ppt) agricultural grade KCl, agitation increased until the 30 minute mark): 10 min | time within which fish showed extreme agitation, began to lose equilibrium and respiration stopped [2, 6]: ≤ 10 min | agitation or adverse effect on the fish ([2]; Example 4: 0.2% (2.0 ppt) agricultural grade KCl, fresh well water at 10° C., after 60 minutes): no agitation or adverse effect | effect of KCl on effectiveness of mechanical treatments A and B at removing/detaching lice ([3]; KCl pretreatment in seawater before mechanical treatment): increases the effectiveness | # removed - mechanical + KCl [3, 7]: 90 | # removed - mechanical treatment only [3, 7]: 39 | % removed - mechanical + KCl [3, 7]: 78.3% | % removed - mechanical treatment only [3, 7]: 60.9% | Sealice counts: Detached in pre-treatment tank [3, 7]: 51 | Sealice counts: On fish - finish [3, 7]: 25 | Sealice counts: On fish - start of mechanical treatment [3, 7]: 64 | # removed - mechanical + KCl [3, 8]: 117 | # removed - mechanical treatment only [3, 8]: 65 | % removed - mechanical + KCl [3, 8]: 80.7% | % removed - mechanical treatment only [3, 8]: 69.9% | Sealice counts: Detached in pre-treatment tank [3, 8]: 52 | Sealice counts: On fish - finish [3, 8]: 28 | Sealice counts: On fish - start of mechanical treatment [3, 8]: 93 | # removed - mechanical + KCl [3, 9]: 99 and 115 | # removed - mechanical treatment only [3, 9]: 19 and 16 | % removed - mechanical + KCl [3, 9]: 91.7% and 99.1% | % removed - mechanical treatment only [3, 9]: 67.9% and 94.1% | Sealice counts: Detached in pre-treatment tank [3, 9]: 80 and 99 | Sealice counts: On fish - start of mechanical treatment [3, 9]: 28 and 17 | # removed - mechanical + KCl [3, 10]: 88 and 85 | # removed - mechanical treatment only [3, 10]: 9 and 11 | % removed - mechanical + KCl [3, 10]: 91.7% and 93.4% | % removed - mechanical treatment only [3, 10]: 52.9% and 64.7% | Sealice counts: Detached in pre-treatment tank [3, 10]: 79 and 74 | Sealice counts: On fish - finish [3, 10]: 8 and 6 | Sealice counts: On fish - start of mechanical treatment [3, 10]: 17 | Sealice counts: On fish - finish ([3]; Mechanical Treatment C, KCl 2 PPT in seawater, treatment time 5 min, lice not counted prior to treatment): 35 and 31 | removing/detaching lice by KCl pretreatment on its own ([3]; pretreatment at 4ppt and 2ppt in seawater): effective in removing/detaching lice on its own | effectiveness of KCl at 4ppt compared with 2ppt ([3]; seawater pretreatment): more effective | effectiveness of KCl at 4ppt for 15 minutes compared with 5 minutes ([3]; seawater pretreatment, 4ppt): more effective

emamectin benzoate
time the pesticide can remain in the fish [4]: more than two months
